pIC50: −log10 of the molar value. Where only a bound is given, the exact number is not on record here.

What all share (format): biochemical
The target in one assay is JAK1 (Homo sapiens, UniProt P23458). Kind of assay: JAK Kinase Assay (JAK1, Caliper EZ Reader, fluoresceinated peptide). The note with it: ATP 76.5 μM; JAK1 10 nM; 120 minutes at room temperature; read-out: JAK1 inhibition. The method, then:
JAK Kinase Assay 384-well plates in the left foot butoxy measured progress. The final assay volume was 25 μL, 250 nL 100× compounds, 10 μL enzyme mix and 15 μL substrate mix (fluoresceinated peptide and ATP) in assay buffer (20 mM HEPES (pH 7.5), 10 mM MgCl2, […], 0.5 mM EGTA and 2 mM DTT) prepared as test compound. By mixing the JAK1 with substrates and test compounds to start the reaction. There action mixture was incubated for 120 minutes at room temperature, then added 30 μL stop buffer for each sample to terminate the reaction with 50 mM EDTA. After termination of the kinase reaction, the proportion of phosphorylated product was determined as a fraction of total peptide substrate using Caliper EZ Reader II. Inhibition data were calculated by comparison with 100% of the reaction mixture without enzyme inhibition and vehicle-only reaction mixture billion % inhibition compared. The final concentration of reagents in the assays is: ATP, 76.5 μM; JAK1 fluorescent peptide (5-FAM-EEPLYWSFPAKKK-CONH2), 3 μM; JAK1, 10 nM, and DMSO, 1%. Dose response curve were generated to determine the concentration required for IC50 of JAK activity.

The target of another assay is JAK2 (Homo sapiens, UniProt O60674). Put plainly: JAK2 Assay (Caliper EZ Reader, fluoresceinated peptide). The note with it: ATP 11.4 μM; JAK2 0.25 nM; 15 minutes at room temperature; read-out: JAK2 inhibition. The method, then:
JAK2 Assay 384-well plates in the left foot butoxy measured progress. The final assay volume was 25 μL, 250 nL 100× compounds, 10 μL enzyme mix and 15 μL substrate mix (fluoresceinated peptide and ATP) in assay buffer (50 mM HEPES (pH 7.5), 10 mM MgCl2, 0.01% TritonX-100, 0.01% Brij35, 0.5 mM EGTA and 2 mM DTT) prepared as test compound By mixing the JAK2 with substrates and test compounds to start the reaction. The reaction mixture was incubated for 15 minutes at room temperature, then added 30 μL stop buffer for each sample to terminate the reaction with 50 mM EDTA. After termination of the kinase reaction, the proportion of phosphorylated product was determined as a fraction of total peptide substrate using Caliper EZ Reader 1 Inhibition data were calculated by comparison with 100% of the reaction mixture without enzyme inhibition and vehicle-only reaction mixture billion % inhibition compared. The final concentration of reagents in the assays is: ATP, 11.4 μM; JAK2 fluorescent peptide (5-FAM-EEPLYWSFPAKKK-CONH2), 3 μM; JAK2, 0.25 nM; and DMSO, 1%. Dose response curve were generated to determine the concentration required for IC50 of JAK2 activity.

Another assay concerns the target T1, JAK3 (Homo sapiens, UniProt P52333).
T1 sequence (P52333 1-1124): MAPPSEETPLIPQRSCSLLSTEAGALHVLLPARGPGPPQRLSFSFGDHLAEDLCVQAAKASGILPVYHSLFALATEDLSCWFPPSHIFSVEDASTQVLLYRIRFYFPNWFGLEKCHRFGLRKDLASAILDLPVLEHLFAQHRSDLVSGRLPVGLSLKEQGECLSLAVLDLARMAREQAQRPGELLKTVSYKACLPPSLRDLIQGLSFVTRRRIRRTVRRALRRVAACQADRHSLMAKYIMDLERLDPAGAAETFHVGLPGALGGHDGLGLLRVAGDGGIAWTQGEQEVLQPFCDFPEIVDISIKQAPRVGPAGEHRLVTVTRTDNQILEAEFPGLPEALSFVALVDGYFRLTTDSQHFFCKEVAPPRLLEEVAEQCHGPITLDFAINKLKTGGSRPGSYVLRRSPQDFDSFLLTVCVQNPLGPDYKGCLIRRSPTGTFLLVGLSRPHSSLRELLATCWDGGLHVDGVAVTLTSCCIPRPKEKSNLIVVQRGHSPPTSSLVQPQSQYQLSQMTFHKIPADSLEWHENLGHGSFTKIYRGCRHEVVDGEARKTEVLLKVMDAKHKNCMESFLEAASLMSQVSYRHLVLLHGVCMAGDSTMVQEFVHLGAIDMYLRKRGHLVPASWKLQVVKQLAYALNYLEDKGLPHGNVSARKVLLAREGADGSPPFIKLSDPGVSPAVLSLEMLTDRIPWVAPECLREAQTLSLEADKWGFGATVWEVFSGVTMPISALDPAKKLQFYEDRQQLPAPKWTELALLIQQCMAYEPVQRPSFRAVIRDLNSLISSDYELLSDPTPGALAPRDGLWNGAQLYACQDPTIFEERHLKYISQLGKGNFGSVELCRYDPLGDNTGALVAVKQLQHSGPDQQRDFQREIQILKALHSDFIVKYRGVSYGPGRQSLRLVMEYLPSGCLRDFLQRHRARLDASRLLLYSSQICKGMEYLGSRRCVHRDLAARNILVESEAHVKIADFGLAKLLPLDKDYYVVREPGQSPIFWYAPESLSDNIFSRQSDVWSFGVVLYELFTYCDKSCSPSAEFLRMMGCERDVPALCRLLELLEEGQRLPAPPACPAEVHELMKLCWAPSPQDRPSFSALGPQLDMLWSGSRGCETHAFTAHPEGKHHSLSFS
Kind of assay: JAK3 Assay (Caliper EZ Reader, fluoresceinated peptide). The note with it: ATP 3.5 μM; JAK3 0.5 nM; 30 minutes at room temperature; read-out: JAK3 inhibition. The method, then: JAK3 Assay 384-well plates in the left foot butoxy measured progress. The final assay volume was 25 μL, 250 nL 100× compounds, 10 μL enzyme mix and 15 μL substrate mix (fluoresceinated peptide and ATP) in assay buffer (50 mM HEPES (pH 7.5), 10 mM MgCl2, 0.01% TritonX-100, 0.01% Brij35, 0.5 mM EGTA and 2 mM DTT) prepared as test compound. By mixing the JAK3 with substrates and test compounds to start the reaction. The reaction mixture was incubated for 30 minutes at room temperature, then added 30 μL stop buffer for each sample to terminate the reaction with 50 mM EDTA. After termination of the kinase reaction, the proportion of phosphorylated product was determined as a fraction of total peptide substrate using Caliper EZ Reader II. Inhibition data were calculated by comparison with 100% of the reaction mixture without enzyme inhibition and vehicle-only reaction mixture billion % inhibition compared. The final concentration of reagents in the assays is: ATP, 3.5 μM; JAK3 fluorescent peptide (5-FAM-EEPLYWSFPAKKK-CONH2), 3 μM; JAK3, 0.5 nM; and DMSO, 1%. Dose response curve were generated to determine the concentration required for IC50 of JAK3 activity.

Sequence of JAK2 (O60674 whole entry, species assumed): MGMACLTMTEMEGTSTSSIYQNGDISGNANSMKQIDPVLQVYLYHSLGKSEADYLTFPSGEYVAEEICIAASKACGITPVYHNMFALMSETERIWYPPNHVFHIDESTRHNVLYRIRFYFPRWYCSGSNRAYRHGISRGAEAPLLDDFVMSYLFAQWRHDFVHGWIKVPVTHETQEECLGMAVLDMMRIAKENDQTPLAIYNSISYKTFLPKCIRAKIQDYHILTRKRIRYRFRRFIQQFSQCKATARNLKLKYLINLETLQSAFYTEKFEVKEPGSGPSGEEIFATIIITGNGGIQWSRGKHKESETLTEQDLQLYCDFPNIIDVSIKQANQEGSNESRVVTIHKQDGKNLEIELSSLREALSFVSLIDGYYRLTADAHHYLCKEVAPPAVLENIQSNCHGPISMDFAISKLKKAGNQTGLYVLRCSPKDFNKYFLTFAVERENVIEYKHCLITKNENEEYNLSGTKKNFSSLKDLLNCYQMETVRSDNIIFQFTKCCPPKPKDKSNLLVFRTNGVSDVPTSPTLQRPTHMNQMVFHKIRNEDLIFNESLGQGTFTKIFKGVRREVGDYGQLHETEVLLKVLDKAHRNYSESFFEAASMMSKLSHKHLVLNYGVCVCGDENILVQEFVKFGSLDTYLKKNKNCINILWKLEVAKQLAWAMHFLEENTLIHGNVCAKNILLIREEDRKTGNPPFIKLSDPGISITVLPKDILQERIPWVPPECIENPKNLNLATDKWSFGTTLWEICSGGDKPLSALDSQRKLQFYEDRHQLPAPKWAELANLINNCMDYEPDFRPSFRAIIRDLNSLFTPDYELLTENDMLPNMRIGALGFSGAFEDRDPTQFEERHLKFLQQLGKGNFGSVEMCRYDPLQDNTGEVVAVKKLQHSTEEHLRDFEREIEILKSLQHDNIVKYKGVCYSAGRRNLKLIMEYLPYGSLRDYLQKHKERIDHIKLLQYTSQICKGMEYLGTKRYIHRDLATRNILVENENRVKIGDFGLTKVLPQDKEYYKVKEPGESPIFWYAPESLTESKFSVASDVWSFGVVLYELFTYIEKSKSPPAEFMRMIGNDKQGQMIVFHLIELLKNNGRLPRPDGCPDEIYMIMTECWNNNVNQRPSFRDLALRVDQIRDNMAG
Sequence of JAK1 (P23458 whole entry, species assumed): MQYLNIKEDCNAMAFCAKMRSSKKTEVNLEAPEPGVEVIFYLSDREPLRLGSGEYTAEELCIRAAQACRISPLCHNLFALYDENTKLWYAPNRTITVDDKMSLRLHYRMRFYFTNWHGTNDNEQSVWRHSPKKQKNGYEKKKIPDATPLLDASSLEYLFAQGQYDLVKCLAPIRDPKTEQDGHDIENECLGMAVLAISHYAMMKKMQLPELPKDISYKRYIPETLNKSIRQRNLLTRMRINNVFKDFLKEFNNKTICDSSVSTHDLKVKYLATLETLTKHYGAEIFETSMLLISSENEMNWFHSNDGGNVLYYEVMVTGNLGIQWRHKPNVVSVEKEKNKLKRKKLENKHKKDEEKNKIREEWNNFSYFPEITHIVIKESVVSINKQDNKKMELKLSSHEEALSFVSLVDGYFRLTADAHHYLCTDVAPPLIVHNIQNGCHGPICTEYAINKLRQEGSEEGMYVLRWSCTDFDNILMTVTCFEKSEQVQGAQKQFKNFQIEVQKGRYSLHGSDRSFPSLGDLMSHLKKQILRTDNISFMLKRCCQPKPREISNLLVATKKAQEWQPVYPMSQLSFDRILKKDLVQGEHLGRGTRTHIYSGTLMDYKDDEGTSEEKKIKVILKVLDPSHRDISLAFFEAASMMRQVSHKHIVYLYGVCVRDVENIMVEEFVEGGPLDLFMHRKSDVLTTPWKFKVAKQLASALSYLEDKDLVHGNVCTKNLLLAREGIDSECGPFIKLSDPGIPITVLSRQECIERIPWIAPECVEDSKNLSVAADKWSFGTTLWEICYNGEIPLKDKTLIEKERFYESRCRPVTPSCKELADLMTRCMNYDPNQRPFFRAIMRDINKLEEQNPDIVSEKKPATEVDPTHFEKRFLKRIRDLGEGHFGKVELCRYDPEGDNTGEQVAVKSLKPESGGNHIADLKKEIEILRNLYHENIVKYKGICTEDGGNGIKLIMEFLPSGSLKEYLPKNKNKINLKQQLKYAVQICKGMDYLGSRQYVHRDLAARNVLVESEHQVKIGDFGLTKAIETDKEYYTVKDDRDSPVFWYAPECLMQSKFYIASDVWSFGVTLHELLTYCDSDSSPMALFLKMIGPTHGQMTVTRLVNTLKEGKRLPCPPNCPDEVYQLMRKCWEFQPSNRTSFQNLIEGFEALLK

For the compound `CN(c1ncnc2[nH]ccc12)C1CC2(C1)CN(C(=O)CC#N)C2` [Compound 2, 3-(6-(methyl(7H-pyrrolo[2,3-d]pyrimidin-4-yl)amino)-2-azaspiro[3.3]heptan-2-yl)-3-oxopropanenitrile], the pIC50 was 6.00 to 7.00 at JAK1, 6.00 to 7.00 at JAK2 and 5.00 to 6.00 at JAK3.
In the case of `CN(c1ncnc2[nH]ccc12)C1CC2(C1)CN(C(=O)CO)C2` [Compound 3, 2-hydroxy-1-(6-(methyl(7H-pyrrolo[2,3-d]pyrimidin-4-yl)amino)-2-azaspiro[3.3]heptan-2-yl)ethanone], the values for the pIC50 on JAK1, on JAK2 and at JAK3 were 6.00 to 7.00, 6.00 to 7.00 and 5.00 to 6.00, respectively.
For the compound `CC(=O)N1CC2(CC(N(C)c3ncnc4[nH]ccc34)C2)C1` [Compound 4, 1-(6-(methyl(7H-pyrrolo[2,3-d]pyrimidin-4-yl)amino)-2-azaspiro[3.3]heptan-2-yl)ethanone], the results for the pIC50 on JAK1, at JAK2 and on JAK3 were 6.00 to 7.00, 6.00 to 7.00 and at most 5.00, respectively.
On to `CCC(=O)N1CC2(CC(N(C)c3ncnc4[nH]ccc34)C2)C1` [Compound 5, 1-(6-(methyl(7H-pyrrolo[2,3-d]pyrimidin-4-yl)amino)-2-azaspiro[3.3]heptan-2-yl)propan-1-one], for which the pIC50 on JAK1 was 6.00 to 7.00; on JAK2, 6.00 to 7.00; on JAK3, 5.00 to 6.00.
Regarding `CCS(=O)(=O)N1CC2(CC(N(C)c3ncnc4[nH]ccc34)C2)C1` [Compound 6, N-(2-(ethylsulfonyl)-2-azaspiro[3.3]heptan-6-yl)-N-methyl-7H-pyrrolo[2,3-d]pyrimidin-4-amine], the pIC50 at JAK1 was 6.00 to 7.00; on JAK2, 6.00 to 7.00; on JAK3 it was at most 5.00.
Turning to `COC(=O)N1CC2(CC(N(C)c3ncnc4[nH]ccc34)C2)C1` [Compound 7, methyl 6-(methyl(7H-pyrrolo[2,3-d]pyrimidin-4-yl)amino)-2-azaspiro[3.3]heptan-2-carboxylate], the pIC50 was 6.00 to 7.00 at JAK1, 5.00 to 6.00 on JAK2 and 5.00 to 6.00 on JAK3.
On to `CCOC(=O)N1CC2(CC(N(C)c3ncnc4[nH]ccc34)C2)C1` [Compound 8, ethyl 6-(methyl(7H-pyrrolo[2,3-d]pyrimidin-4-yl)amino)-2-azaspiro[3.3]heptane-2-carboxylate], for which the values for the pIC50 on JAK1, at JAK2 and on JAK3 were 6.00 to 7.00, 5.00 to 6.00 and 5.00 to 6.00, respectively.
Regarding `CN(c1ncnc2[nH]ccc12)C1CC2(C1)CN(C(=O)c1cccnc1)C2` [Compound 9, (6-(methyl(7H-pyrrolo[2,3-d]pyrimidin-4-yl)amino)-2-azaspiro[3.3]heptan-2-yl)(pyridin-3-yl)methanone], the pIC50 is 7.00 to 8.00 on JAK1, 6.00 to 7.00 on JAK2 and 5.00 to 6.00 at JAK3.
In the case of `CN(c1ncnc2[nH]ccc12)C1CC2(C1)CN(C(=O)CCC#N)C2` [Compound 10, 4-(6-(methyl(7H-pyrrolo[2,3-d]pyrimidin-4-yl)amino)-2-azaspiro[3.3]heptan-2-yl)-4-oxobutanenitrile], the pIC50 is 7.00 to 8.00 on JAK1, 6.00 to 7.00 on JAK2 and 5.00 to 6.00 at JAK3.
Take `CN(c1ncnc2[nH]ccc12)C1CC2(C1)CN(C(=O)c1cccc(C#N)c1)C2` [Compound 11, 3-(6-(methyl(7H-pyrrolo[2,3-d]pyrimidin-4-yl)amino)-2-azaspiro[3.3]heptane-2-carbonyl)benzonitrile]: the pIC50 on JAK1 is 7.00 to 8.00; on JAK2, 6.00 to 7.00; on JAK3, 5.00 to 6.00.
Taken in the same sequence, the figures for `CN(c1ncnc2[nH]ccc12)C1CC2(C1)CN(C(=O)C1CCC(=O)CC1)C2` [Compound 12, 4-(6-(methyl(7H-pyrrolo[2,3-d]pyrimidin-4-yl)amino)-2-azaspiro[3.3]heptane-2-carbonyl)cyclohexanone] were 7.00 to 8.00, 6.00 to 7.00 and 5.00 to 6.00.
Taken in the same sequence, the figures for `CN(c1ncnc2[nH]ccc12)C1CC2(C1)CN(C(=O)c1cccc(C(F)(F)F)c1)C2` [Compound 13, (6-(methyl(7H-pyrrolo[2,3-d]pyrimidin-4-yl)amino)-2-azasprio[3.3]heptan-2-yl)(3-(trifluoromethyl)phenyl)methanone] were 6.00 to 7.00, 5.00 to 6.00 and 5.00 to 6.00.
For the compound `CN(c1ncnc2[nH]ccc12)C1CC2(C1)CN(C(=O)Cc1ccc(C#N)cc1)C2` [Compound 15, 4-(2-(6-(methyl(7H-pyrrolo[2,3-d]pyrimidin-4-yl)amino)-2-azaspiro[3.3]heptan-2-yl)-2-oxoethyl)benzonitrile], the pIC50 was 6.00 to 7.00 on JAK1, 5.00 to 6.00 at JAK2 and 5.00 to 6.00 on JAK3.
Consider `CN(c1ncnc2[nH]ccc12)C1CC2(C1)CN(C(=O)CCS(C)(=O)=O)C2` [Compound 16, 1-(6-(methyl(7H-pyrrolo[2,3-d]pyrimidin-4-yl)amino)-2-azaspiro[3.3]heptan-2-yl)-3-(methylsulfonyl)propan-1-one], for which the pIC50 is 6.00 to 7.00 on JAK1, 5.00 to 6.00 on JAK2 and 5.00 to 6.00 at JAK3.
Consider `CN(c1ncnc2[nH]ccc12)C1CC2(C1)CN(C(=O)c1cccc(OC(F)(F)F)c1)C2` [Compound 17, (6-(methyl(7H-pyrrolo[2,3-d]pyrimidin-4-yl)amino)-2-azaspiro[3.3]heptan-2-yl)(3-(trifluoromethoxy)phenyl)methanone], for which the pIC50 was 6.00 to 7.00 at JAK1, 5.00 to 6.00 at JAK2 and at most 5.00 on JAK3.
On to `CN(c1ncnc2[nH]ccc12)C1CC2(C1)CN(C(=O)c1cnccn1)C2` [Compound 18, (6-(methyl(7H-pyrrolo[2,3-d]pyrimidin-4-yl)amino)-2-azaspiro[3.3]heptan-2-yl)(pyrazin-2-yl)methanone], for which the values for the pIC50 on JAK1, at JAK2 and at JAK3 were 6.00 to 7.00, 5.00 to 6.00 and at most 5.00, respectively.

The values above are taken from US11365188B2, “JAK inhibitors” (priority 2018, dated 2022).
